Legend:
[1] = test system: caspase-3 activity of cultured rat myocardial cells; assay: Staurosporine-induced increase in caspase-3 activity of cultured myocardial cells (Caspase-3 Assay Kit, Fluorimetric; AMC formation); assay type: cell-based; conditions: 1 μM staurosporine + 250 μM DIDS, 12-well multiwell plates, FIG. 5
Protocol: The caspase-3 activity of the thus prepared cells was measured with Caspase-3 Assay Kit, Fluorimetric (SIGMA CHEMICAL, Co., St. Louis, Mo., USA).
More specifically, 12-well multiwell plates were cultured for 2 hours after adding a conditioned culture solution, which was then removed and further cultivation was effected for an appropriate period, mostly for 2 hours; thereafter, cell lysates were prepared using Caspase-3 Assay Kit, Fluorimetric; in the subsequent stage, the amount of formation of specific fluorochrome 7-amino-4-methylcoumarin (AMC) was measured by means of a fluorometric microplate reader (SPECTRA Fluor, Wako Pure Chemical Industries, Ltd., Osaka, Japan) according to the procedure of measurement with the Kit; and the amount of AMC formation was used as an index of caspase-3 activity. […]

[2] = test system: primary cultures of rat myocardial cells; assay: Staurosporine-induced decrease in cell viability (WST-8) in primary cultures of rat myocardial cells; assay type: cell-based; conditions: for cytotoxicity induced in cultured myocardial cells: 1 μM staurosporine, HCO3−-free culture medium versus ordinary culture medium
From the text: The myocardial cells used in the experiments were those of primary cultures from rats. In order to prepare primary cultures of myocardial cells, heart was excised from SD rats at day 20 of pregnancy (purchased from Japan SLC Co., Ltd.) and enzyme-digested with collagenase (Worthington Biochemical Corp.) and trypsin (GIBCO BRL, Gaithersberg, Md.) to isolate myocardial cells and make a cell suspension of them. As an ordinary culture medium, D-MEM supplemented with fetal bovine serum (FBS) to give a concentration of 10% (GIBCO BRL, Gaithersberg, Md.) was employed. For checking to see if Cl^−/HCO3^− anion exchangers (AEs) would be involved in apoptosis in cardiovascular cells and in protection from it, Leibovitz's L-15 Medium supplemented with FBS to give a concentration of 10% (GIBCO BRL, Gaithersberg, Md.) was employed as an HCO3^−-free culture medium and the result from it was compared with the result from the ordinary culture medium. The HCO3^−-free culture medium was employed in order to suppress the function of the Cl^−/HCO3^− anion exchangers by depleting HCO3^−. The Cl^−/HCO3^− anion exchangers are widely distributed in erythrocytes and other tissues, AE1 being expressed primarily in erythrocytes and AE3 in myocardial cells and neurons. By coupling the exclusion of intracellular Cl^− to the outside of cells and intake of extracellular HCO3^− into the cells, the exchangers function as an intracellular Cl^− and pH regulating system and they also work as a cell volume regulating system during regulatory volume increase (RVI). In a pathological context, it is speculated that the exchangers participate in the process of myocardial cells' acidification which accompanies ischemia.
A suspension of myocardial cells at a density of 3-5×10^5 cells/mL was dispensed in 24-well multiwell plates (Falcon) in an amount of 0.5 mL per well, or in 96-well multiwell plates (Falcon) in an amount of 0.1 mL per well, or in 12-well multiwell plates (Falcon) in an mount of 1 mL per well. The plates were placed in a CO2 incubator and cultured in 5% CO2 at 37° C. for 2-3 days. The thus cultured cells were used in subsequent experiments.
A control group consisted of three culture media, a cell-free medium (blank), a cell-containing medium alone (D-MEM) and 0.3% DMSO [D-MEM supplemented with 0.3% DMSO (DOJINDO LABORATORIES, Kumamoto, Japan)]. A test group consisted of three culture media containing a drug or drugs under specified conditions, i.e., a solution of 1 μM staurosporine (Sigma) dissolved in 0.3% DMSO, a mixed solution of the 1 μM staurosporine and 125-1000 μM SITS (SIGMA CHEMICAL Co., St. Louis, Mo., USA), and a mixed solution of the 1 μM staurosporine and 62.5-250 μM DIDS (SIGMA CHEMICAL Co., St. Louis, Mo., USA); the culture media of the test group are hereunder referred to as “conditioned culture media”.
Specifically, after aspirating away a culture medium, a fresh medium of the control group or a conditioned culture medium of interest was added in 24-well multiwell plates in an amount of 0.5 mL/well. After adding the conditioned culture medium, the plates were placed in a CO2 incubator and cultured in 5% CO2 at 37° C. for 2-4 hours. When a conditioned culture medium based on the HCO3^−-free culture medium was added, the plates were placed in an atmospheric incubator and cultured at 37° C. […]

O=S(=O)(O)c1cc(N=C=S)ccc1C=Cc1ccc(N=C=S)cc1S(=O)(=O)O [DIDS, 4,4′-diisothiocyanostilbene-2,2′-disulfonic acid]
suppression of the staurosporine-induced increase in caspase-3 activity [1]: suppresses the staurosporine-induced increase in caspase-3 activity | suppression of the staurosporine-induced drop in cell viability ([2]; 1 μM staurosporine + 62.5, 125 or 250 μM DIDS, 24-well multiwell plates, FIG. 4): suppresses the drop in cell viability in a dose-dependent manner | suppression of the staurosporine-induced decrease in cell viability ([2]; HCO3−-free culture medium, 1 μM staurosporine + 62.5, 125 or 250 μM DIDS, 24-well multiwell plates, FIG. 6): suppressed the decrease in cell viability in a dose-dependent manner | apoptosis suppressing effect on myocardial cells ([2]; overall conclusion from Examples 1-6): exhibit the apoptosis suppressing effect on myocardial cells

CN[C@@H]1C[C@H]2O[C@@](C)([C@@H]1OC)n1c3ccccc3c3c4c(c5c6ccccc6n2c5c31)C(=O)NC4 [staurosporine]
cytotoxicity induced in cultured myocardial cells ([2]; 24-well multiwell plates, FIG. 6): comparable levels of cytotoxicity was induced by staurosporine | cytotoxicity induced in cultured myocardial cells ([2]; 96-well multiwell plates, FIG. 7): comparable levels of cytotoxicity was induced on the 96-well multiwell plates by staurosporine

From patent publication US20050003455A1, “Remedies for heart diseases” (priority 2001, published 2005)
